# Assay results reported in patent US9302999B2, “Substituted triazoles as herbicides” (E. I. DU PONT DE NEMOURS AND COMPANY, priority 2012, dated 2016).
# Columns and labels:
# Assay type in all cases: in vivo
# soybean (Glycine max) = test: Test C pre-/postemergence: soybean
# Method in brief: (§1)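 Preemergence on seeds in loam/sand, postemergence on 2–18 cm (1–4-leaf) plants in peat-based medium; compounds in non-phytotoxic solvent with surfactant. After 13–15 days in greenhouse, visual rating versus controls, 0 (no effect) to 100 (complete control).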
# [1] = system: pigweed (Amaranthus retroflexus); test: Test C pre-/postemergence: pigweed
# Method in brief: as §1
# [2] = system: velvetleaf (Abutilon theophrasti); test: Test C pre-/postemergence: velvetleaf
# Method in brief: as §1
# [3] = system: foxtail, giant (giant foxtail, Setaria faberii); test: Test C pre-/postemergence: foxtail, giant
# Method in brief: as §1
# [4] = system: barnyardgrass (Echinochloa crus-galli); test: Test B flooded paddy: barnyardgrass; conditions: Flood; 250 g ai/ha; applied to paddy water at 2-leaf stage; visually evaluated after 13 to 15 days
# Method in brief: (§2)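 Response scored visually, 0–100 relative to controls, 13–15 days after the compound was applied into paddy water; plants were at the 2-leaf stage in pots kept flooded to 3 cm.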
# corn (Zea mays) = test: Test C pre-/postemergence: corn
# Method in brief: as §1
# [5] = system: johnsongrass (Sorghum halepense); test: Test C pre-/postemergence: johnsongrass
# Method in brief: as §1
# [6] = system: blackgrass (Alopecurus myosuroides); test: Test C pre-/postemergence: blackgrass
# Method in brief: as §1
# [7] = system: winter wheat (Triticum aestivum); test: Test C pre-/postemergence: winter wheat
# Method in brief: as §1
# rice (Oryza sativa) = test: Test B flooded paddy: rice; conditions: Flood; 250 g ai/ha; applied to paddy water at 2-leaf stage; visually evaluated after 13 to 15 days
# Method in brief: as §2
# kochia (Kochia scoparia) = test: Test C pre-/postemergence: kochia; conditions: Postemergence
# Method in brief: as §1
# [8] = Postemergence, 31 g ai/ha, scale 0 to 100 (0 no effect, 100 complete control)
# [9] = Postemergence, 62 g ai/ha, scale 0 to 100 (0 no effect, 100 complete control)
# [10] = Postemergence, 125 g ai/ha, scale 0 to 100, 0 no effect, 100 complete control
# [11] = Preemergence, 31 g ai/ha, scale 0 (no effect) to 100 (complete control)
# [12] = Preemergence, 62 g ai/ha, scale of 0 to 100, 0 is no effect, 100 is complete control
# [13] = Preemergence, 125 g ai/ha, scale 0 to 100, 0 no effect, 100 complete control
# [14] = Postemergence, 250 g ai/ha, scale 0 to 100 (0 no effect, 100 complete control)
# [15] = Preemergence, 250 g ai/ha, scale 0 to 100, 0 no effect, 100 complete control
# [16] = Postemergence, 250 g ai/ha, scale 0 to 100
# [17] = 31 g ai/ha, scale 0 to 100 (0 no effect, 100 complete control)
# [18] = 62 g ai/ha, scale 0 to 100 (0 no effect, 100 complete control)
# [19] = 125 g ai/ha, scale 0 to 100, 0 no effect, 100 complete control
# [20] = 250 g ai/ha, scale 0 to 100 (0 no effect, 100 complete control)
compound,measurement,setting,value
CCc1nn(-c2ccc(F)c(F)c2)nc1Oc1ccnc(C(F)(F)F)c1 [Compound 171],"Plant response rating, Soybean",soybean (Glycine max); [8],25
same,"Plant response rating, Soybean",soybean (Glycine max); [9],35
same,"Plant response rating, Soybean",soybean (Glycine max); [10],40
same,"Plant response rating, Soybean",soybean (Glycine max); [11],0
same,"Plant response rating, Soybean",soybean (Glycine max); [12],0
same,"Plant response rating, Soybean",soybean (Glycine max); [13],5
same,"Plant response rating, Pigweed",[1]; [8],70
same,"Plant response rating, Pigweed",[1]; [9],90
same,"Plant response rating, Pigweed",[1]; [10],90
same,"Plant response rating, Pigweed",[1]; [14],98
same,"Plant response rating, Pigweed",[1]; [11],60
same,"Plant response rating, Pigweed",[1]; [12],100
same,"Plant response rating, Pigweed",[1]; [13],100
same,"Plant response rating, Pigweed",[1]; [15],100
same,"Plant response rating, Velvetleaf",[2]; [8],25
same,"Plant response rating, Velvetleaf",[2]; [9],25
same,"Plant response rating, Velvetleaf",[2]; [10],45
same,"Plant response rating, Velvetleaf",[2]; [14],75
same,"Plant response rating, Velvetleaf",[2]; [11],5
same,"Plant response rating, Velvetleaf",[2]; [12],25
same,"Plant response rating, Velvetleaf",[2]; [13],55
same,"Plant response rating, Velvetleaf",[2]; [15],65
same,"Plant response rating, Foxtail, Giant",[3]; [8],25
same,"Plant response rating, Foxtail, Giant",[3]; [9],35
same,"Plant response rating, Foxtail, Giant",[3]; [10],55
same,"Plant response rating, Foxtail, Giant",[3]; [16],70
same,"Plant response rating, Foxtail, Giant",[3]; [11],98
same,"Plant response rating, Foxtail, Giant",[3]; [12],100
same,"Plant response rating, Foxtail, Giant",[3]; [13],100
same,"Plant response rating, Foxtail, Giant",[3]; [15],100
same,"Plant response rating, Barnyardgrass (0 to 100 scale, 0 is no effect, 100 is complete control)",[4],70
same,"Plant response rating, Corn",corn (Zea mays); [8],15
same,"Plant response rating, Corn",corn (Zea mays); [9],15
same,"Plant response rating, Corn",corn (Zea mays); [10],15
same,"Plant response rating, Corn",corn (Zea mays); [16],15
same,"Plant response rating, Corn",corn (Zea mays); [11],0
same,"Plant response rating, Corn",corn (Zea mays); [12],0
same,"Plant response rating, Corn",corn (Zea mays); [13],5
same,"Plant response rating, Corn",corn (Zea mays); [15],25
same,"Plant response rating, Johnsongrass",[5]; [8],15
same,"Plant response rating, Johnsongrass",[5]; [9],15
same,"Plant response rating, Johnsongrass",[5]; [10],25
same,"Plant response rating, Johnsongrass",[5]; [14],25
same,"Plant response rating, Johnsongrass",[5]; [11],0
same,"Plant response rating, Johnsongrass",[5]; [12],25
same,"Plant response rating, Johnsongrass",[5]; [13],75
same,"Plant response rating, Johnsongrass",[5]; [15],95
same,"Plant response rating, Blackgrass",[6]; [8],5
same,"Plant response rating, Blackgrass",[6]; [9],10
same,"Plant response rating, Blackgrass",[6]; [10],10
same,"Plant response rating, Blackgrass",[6]; [16],30
same,"Plant response rating, Blackgrass",[6]; [11],5
same,"Plant response rating, Blackgrass",[6]; [12],98
same,"Plant response rating, Blackgrass",[6]; [13],100
same,"Plant response rating, Blackgrass",[6]; [15],100
same,"Plant response rating, Wheat",[7]; [8],5
same,"Plant response rating, Wheat",[7]; [9],10
same,"Plant response rating, Wheat",[7]; [10],20
same,"Plant response rating, Wheat",[7]; [14],20
same,"Plant response rating, Wheat",[7]; [11],0
same,"Plant response rating, Wheat",[7]; [12],0
same,"Plant response rating, Wheat",[7]; [13],5
same,"Plant response rating, Wheat",[7]; [15],45
same,"Plant response rating, Rice (0 to 100 scale, 0 is no effect, 100 is complete control)",rice (Oryza sativa),60
same,"Plant response rating, Kochia",kochia (Kochia scoparia); [17],90
same,"Plant response rating, Kochia",kochia (Kochia scoparia); [18],90
same,"Plant response rating, Kochia",kochia (Kochia scoparia); [19],90
same,"Plant response rating, Kochia",kochia (Kochia scoparia); [20],90
CCCc1nn(-c2ccc(F)c(F)c2)nc1Oc1ccnc(C(F)(F)F)c1 [Compound 172],"Plant response rating, Soybean",soybean (Glycine max); [8],35
same,"Plant response rating, Soybean",soybean (Glycine max); [9],45
same,"Plant response rating, Soybean",soybean (Glycine max); [10],60
same,"Plant response rating, Soybean",soybean (Glycine max); [14],60
same,"Plant response rating, Soybean",soybean (Glycine max); [11],5
same,"Plant response rating, Soybean",soybean (Glycine max); [12],10
same,"Plant response rating, Soybean",soybean (Glycine max); [13],10
same,"Plant response rating, Soybean",soybean (Glycine max); [15],35
same,"Plant response rating, Pigweed",[1]; [8],98
same,"Plant response rating, Pigweed",[1]; [9],98
same,"Plant response rating, Pigweed",[1]; [10],98
same,"Plant response rating, Pigweed",[1]; [14],98
same,"Plant response rating, Pigweed",[1]; [11],100
same,"Plant response rating, Pigweed",[1]; [12],100
same,"Plant response rating, Pigweed",[1]; [13],100
same,"Plant response rating, Pigweed",[1]; [15],100
same,"Plant response rating, Velvetleaf",[2]; [8],65
same,"Plant response rating, Velvetleaf",[2]; [9],65
same,"Plant response rating, Velvetleaf",[2]; [10],75
same,"Plant response rating, Velvetleaf",[2]; [14],80
same,"Plant response rating, Velvetleaf",[2]; [11],60
same,"Plant response rating, Velvetleaf",[2]; [12],75
same,"Plant response rating, Velvetleaf",[2]; [13],100
same,"Plant response rating, Velvetleaf",[2]; [15],100
same,"Plant response rating, Foxtail, Giant",[3]; [8],35
same,"Plant response rating, Foxtail, Giant",[3]; [9],35
same,"Plant response rating, Foxtail, Giant",[3]; [10],80
same,"Plant response rating, Foxtail, Giant",[3]; [16],95
same,"Plant response rating, Foxtail, Giant",[3]; [11],100
same,"Plant response rating, Foxtail, Giant",[3]; [12],100
same,"Plant response rating, Foxtail, Giant",[3]; [13],100
same,"Plant response rating, Foxtail, Giant",[3]; [15],100
same,"Plant response rating, Barnyardgrass (0 to 100 scale, 0 is no effect, 100 is complete control)",[4],80
same,"Plant response rating, Corn",corn (Zea mays); [8],20
same,"Plant response rating, Corn",corn (Zea mays); [9],20
same,"Plant response rating, Corn",corn (Zea mays); [10],25
same,"Plant response rating, Corn",corn (Zea mays); [16],30
same,"Plant response rating, Corn",corn (Zea mays); [11],5
same,"Plant response rating, Corn",corn (Zea mays); [12],5
same,"Plant response rating, Corn",corn (Zea mays); [13],15
same,"Plant response rating, Corn",corn (Zea mays); [15],40
same,"Plant response rating, Johnsongrass",[5]; [8],35
same,"Plant response rating, Johnsongrass",[5]; [9],60
same,"Plant response rating, Johnsongrass",[5]; [10],65
same,"Plant response rating, Johnsongrass",[5]; [14],95
same,"Plant response rating, Johnsongrass",[5]; [11],60
same,"Plant response rating, Johnsongrass",[5]; [12],75
same,"Plant response rating, Johnsongrass",[5]; [13],95
same,"Plant response rating, Johnsongrass",[5]; [15],98
same,"Plant response rating, Blackgrass",[6]; [8],10
same,"Plant response rating, Blackgrass",[6]; [9],25
same,"Plant response rating, Blackgrass",[6]; [10],60
same,"Plant response rating, Blackgrass",[6]; [16],60
same,"Plant response rating, Blackgrass",[6]; [11],90
same,"Plant response rating, Blackgrass",[6]; [12],95
same,"Plant response rating, Blackgrass",[6]; [13],95
same,"Plant response rating, Blackgrass",[6]; [15],95
same,"Plant response rating, Wheat",[7]; [8],10
same,"Plant response rating, Wheat",[7]; [9],20
same,"Plant response rating, Wheat",[7]; [10],25
same,"Plant response rating, Wheat",[7]; [14],30
same,"Plant response rating, Wheat",[7]; [11],15
same,"Plant response rating, Wheat",[7]; [12],40
same,"Plant response rating, Wheat",[7]; [13],45
same,"Plant response rating, Wheat",[7]; [15],45
same,"Plant response rating, Rice (0 to 100 scale, 0 is no effect, 100 is complete control)",rice (Oryza sativa),50
same,"Plant response rating, Kochia",kochia (Kochia scoparia); [17],90
same,"Plant response rating, Kochia",kochia (Kochia scoparia); [18],90
same,"Plant response rating, Kochia",kochia (Kochia scoparia); [19],90
same,"Plant response rating, Kochia",kochia (Kochia scoparia); [20],90
